Data published in US20100267697A1, “ION CHANNEL MODULATORS” (Wyeth, priority 2006, published 2010).
Counter-ions that a name gives are not always drawn.

These compounds were tested against T1, human Cav2.2 (composed of the subunits α1, β3 and α2δ) (Homo sapiens, UniProt Q00975) (assay: FLIPR assay (TSA201 cells stably transfected with human Cav2.2 and human Kir2.3, FLUO-4 Ca2+ signal, KCl depolarization)). Conditions: 70 mM KCl depolarization, average value.
T1 construct: expressed in transfected cells
T1 sequence (Q00975 whole entry): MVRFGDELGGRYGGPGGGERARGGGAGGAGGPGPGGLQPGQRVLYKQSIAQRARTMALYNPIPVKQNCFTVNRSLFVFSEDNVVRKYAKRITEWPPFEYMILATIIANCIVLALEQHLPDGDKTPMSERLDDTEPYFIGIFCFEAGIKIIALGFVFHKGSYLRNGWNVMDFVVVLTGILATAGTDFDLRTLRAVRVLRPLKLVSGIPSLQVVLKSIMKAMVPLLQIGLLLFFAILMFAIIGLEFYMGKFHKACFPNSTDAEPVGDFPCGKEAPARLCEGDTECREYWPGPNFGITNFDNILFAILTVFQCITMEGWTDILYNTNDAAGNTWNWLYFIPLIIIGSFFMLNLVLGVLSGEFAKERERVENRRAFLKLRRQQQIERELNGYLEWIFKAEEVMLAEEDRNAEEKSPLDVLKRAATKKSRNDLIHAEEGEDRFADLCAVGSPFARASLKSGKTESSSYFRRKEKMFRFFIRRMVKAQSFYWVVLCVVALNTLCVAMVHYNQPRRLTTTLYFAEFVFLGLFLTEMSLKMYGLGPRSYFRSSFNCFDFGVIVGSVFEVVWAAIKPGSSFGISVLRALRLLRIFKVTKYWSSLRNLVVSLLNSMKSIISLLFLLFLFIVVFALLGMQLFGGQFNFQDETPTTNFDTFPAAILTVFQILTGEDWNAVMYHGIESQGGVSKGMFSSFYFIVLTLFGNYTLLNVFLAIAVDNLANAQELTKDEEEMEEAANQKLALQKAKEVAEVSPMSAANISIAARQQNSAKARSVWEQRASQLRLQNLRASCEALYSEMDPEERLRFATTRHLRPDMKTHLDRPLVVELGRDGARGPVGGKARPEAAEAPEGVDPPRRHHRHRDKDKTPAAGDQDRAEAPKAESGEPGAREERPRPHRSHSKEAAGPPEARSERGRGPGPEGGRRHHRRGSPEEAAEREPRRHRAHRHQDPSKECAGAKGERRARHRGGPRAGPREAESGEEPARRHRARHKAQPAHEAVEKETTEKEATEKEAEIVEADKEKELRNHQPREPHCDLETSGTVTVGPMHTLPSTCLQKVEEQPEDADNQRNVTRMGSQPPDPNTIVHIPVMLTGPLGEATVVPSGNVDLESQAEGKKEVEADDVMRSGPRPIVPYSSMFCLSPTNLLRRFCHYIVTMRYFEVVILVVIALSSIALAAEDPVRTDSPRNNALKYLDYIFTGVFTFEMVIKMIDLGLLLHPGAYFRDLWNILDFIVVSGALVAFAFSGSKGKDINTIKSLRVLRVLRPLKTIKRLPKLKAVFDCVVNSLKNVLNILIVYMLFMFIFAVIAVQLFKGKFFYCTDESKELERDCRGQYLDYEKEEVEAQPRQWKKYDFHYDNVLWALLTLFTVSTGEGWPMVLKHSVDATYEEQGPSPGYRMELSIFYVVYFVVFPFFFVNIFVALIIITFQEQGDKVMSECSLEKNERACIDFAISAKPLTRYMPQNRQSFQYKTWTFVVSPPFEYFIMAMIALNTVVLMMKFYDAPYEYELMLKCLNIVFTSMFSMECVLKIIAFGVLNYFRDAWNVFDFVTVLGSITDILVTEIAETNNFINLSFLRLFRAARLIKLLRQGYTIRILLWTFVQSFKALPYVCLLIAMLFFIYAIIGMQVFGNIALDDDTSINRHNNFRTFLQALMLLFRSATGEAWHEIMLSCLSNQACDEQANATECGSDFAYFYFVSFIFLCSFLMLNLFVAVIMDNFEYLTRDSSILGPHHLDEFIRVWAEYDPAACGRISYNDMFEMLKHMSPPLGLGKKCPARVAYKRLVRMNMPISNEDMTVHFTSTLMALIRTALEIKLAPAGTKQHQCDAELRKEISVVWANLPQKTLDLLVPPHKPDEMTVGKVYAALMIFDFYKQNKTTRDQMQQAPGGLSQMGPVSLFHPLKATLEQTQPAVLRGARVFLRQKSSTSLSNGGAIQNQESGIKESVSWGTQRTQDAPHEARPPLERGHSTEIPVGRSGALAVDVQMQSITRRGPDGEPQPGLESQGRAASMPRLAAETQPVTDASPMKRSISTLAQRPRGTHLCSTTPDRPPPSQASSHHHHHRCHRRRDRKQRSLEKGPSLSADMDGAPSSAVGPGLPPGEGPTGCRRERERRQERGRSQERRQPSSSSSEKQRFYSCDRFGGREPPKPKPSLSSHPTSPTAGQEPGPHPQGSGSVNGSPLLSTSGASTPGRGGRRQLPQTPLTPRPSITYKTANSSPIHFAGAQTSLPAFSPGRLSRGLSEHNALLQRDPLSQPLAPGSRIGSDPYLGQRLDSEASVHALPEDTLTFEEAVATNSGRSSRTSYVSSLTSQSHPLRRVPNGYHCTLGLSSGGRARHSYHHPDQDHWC
T1 sequence (P54284 whole entry partner): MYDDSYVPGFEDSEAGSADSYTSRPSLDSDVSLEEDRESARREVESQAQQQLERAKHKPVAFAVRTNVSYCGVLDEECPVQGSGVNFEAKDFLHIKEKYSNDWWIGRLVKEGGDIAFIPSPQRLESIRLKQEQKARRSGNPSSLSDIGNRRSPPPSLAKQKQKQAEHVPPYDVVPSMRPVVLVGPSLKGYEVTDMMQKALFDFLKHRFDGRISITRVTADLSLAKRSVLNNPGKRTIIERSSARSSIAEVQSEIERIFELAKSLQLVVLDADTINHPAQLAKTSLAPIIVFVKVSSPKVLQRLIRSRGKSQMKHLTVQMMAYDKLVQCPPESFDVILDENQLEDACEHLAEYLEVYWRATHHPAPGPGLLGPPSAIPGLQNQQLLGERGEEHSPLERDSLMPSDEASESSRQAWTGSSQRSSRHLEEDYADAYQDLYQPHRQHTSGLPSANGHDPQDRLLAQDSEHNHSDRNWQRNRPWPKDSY
T1 sequence (P54289 25-946 partner limits assumed): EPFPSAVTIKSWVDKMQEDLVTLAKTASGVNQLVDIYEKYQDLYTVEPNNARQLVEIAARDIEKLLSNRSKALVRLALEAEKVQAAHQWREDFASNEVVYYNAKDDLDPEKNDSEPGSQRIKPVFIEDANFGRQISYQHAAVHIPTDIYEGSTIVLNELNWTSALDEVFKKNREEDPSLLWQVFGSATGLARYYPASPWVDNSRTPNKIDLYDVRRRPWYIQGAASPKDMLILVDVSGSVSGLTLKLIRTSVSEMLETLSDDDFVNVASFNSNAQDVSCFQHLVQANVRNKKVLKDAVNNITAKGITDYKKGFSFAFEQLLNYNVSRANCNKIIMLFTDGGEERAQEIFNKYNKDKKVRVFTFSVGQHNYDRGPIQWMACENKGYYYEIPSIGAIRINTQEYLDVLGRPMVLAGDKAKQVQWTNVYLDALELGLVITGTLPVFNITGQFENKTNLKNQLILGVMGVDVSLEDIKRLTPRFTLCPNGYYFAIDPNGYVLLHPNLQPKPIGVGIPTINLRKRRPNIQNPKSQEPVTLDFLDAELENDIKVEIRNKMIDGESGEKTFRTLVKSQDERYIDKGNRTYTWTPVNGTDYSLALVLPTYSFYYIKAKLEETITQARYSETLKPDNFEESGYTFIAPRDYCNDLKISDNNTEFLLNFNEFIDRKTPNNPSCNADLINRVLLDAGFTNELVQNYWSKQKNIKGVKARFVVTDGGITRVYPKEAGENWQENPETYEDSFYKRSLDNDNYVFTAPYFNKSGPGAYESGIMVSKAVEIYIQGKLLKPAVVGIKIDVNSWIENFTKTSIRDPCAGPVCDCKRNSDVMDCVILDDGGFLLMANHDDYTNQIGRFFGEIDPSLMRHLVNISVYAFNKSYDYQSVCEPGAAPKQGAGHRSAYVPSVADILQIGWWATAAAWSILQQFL
T1 sequence (P54289 947-1103 partner limits assumed): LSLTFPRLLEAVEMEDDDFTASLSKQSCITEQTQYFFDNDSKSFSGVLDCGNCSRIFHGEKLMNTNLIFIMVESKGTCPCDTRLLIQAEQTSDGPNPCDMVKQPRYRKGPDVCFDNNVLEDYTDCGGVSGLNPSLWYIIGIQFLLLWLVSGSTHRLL
Assay type: cell-based
Method: TSA201 cells stably transfected with human Cav2.2 (composed of the subunits α1, β3 and α2δ) and human Kir2.3 to enhance the FLIPR Ca^2+ signal were used. These cells were plated on 384-well collagen-coated plates (BD Bioscience, Franklin Lakes, N.J.) at a density of 2×10^4 cells/well one day prior to the FLIPR assay. […] Culture media is removed and replaced with 25 μl of the FLUO-4 dye solution and incubated for one hour at room temperature. The cell plate is then placed on the FLIPR where the dye is aspirated off and replaced with 25 μl of HBSS (Invitrogen, Carlsbad, Calif.). The HBSS is then aspirated and replaced with […] of compound which is diluted in HBSS with 1% DMSO. Compounds are incubated on the cells for 15 minutes. The cells are then depolarized with 25 μl of 140 mM KCl solution (also containing 2 mM CaCl2 and 10 mM HEPES). The final concentration of KCl on the cells is 70 mM.

| SMILES | IC50 |
| --- | --- |
| CN(CCO)c1ccc(CN(C(=O)C(C)(C)C)c2ccc(F)cc2)cn1 [Compound 130, N-(4-fluorophenyl)-N-({6-[(2-hydroxyethyl)(methyl)amino]pyridin-3-yl}methyl)-2,2-dimethylpropanamide] | 14.8 µM |
| Cc1ccc(OCCN(C)c2ccc(CN(C(=O)C(C)(C)C)c3ccc(F)cc3)cn2)nc1 [Compound 131, N-(4-fluorophenyl)-2,2-dimethyl-N-{[6-(methyl{2-[(5-methylpyridin-2-yl)oxy]ethyl}amino)pyridin-3-yl]methyl}propanamide] | 8.1 µM |
| CC(C)(C)C(=O)N(Cc1ccc(N2CCCC2)nc1)c1ccc(F)cc1 [Compound 132, N-(4-fluorophenyl)-2,2-dimethyl-N-[(6-pyrrolidin-1-ylpyridin-3-yl)methyl]propanamide] | 8.2 µM |
| CCN(CC)C1CCN(c2ccc(CN(C(=O)C(C)(C)C)c3ccc(F)cc3)cn2)C1 (stereo not drawn) [Compound 133, N-({6-[3-(diethylamino)pyrrolidin-1-yl]pyridin-3-yl}methyl)-N-(4-fluorophenyl)-2,2-dimethylpropanamide] | 11.5 µM |
| CC(C)(C)C(=O)N(Cc1csc(N2CCCCC2)n1)c1ccc(F)cc1 [Compound 134, N-(4-fluorophenyl)-2,2-dimethyl-N-[(2-piperidin-1-yl-1,3-thiazol-4-yl)methyl]propanamide] | 4.4 µM |
| CCC(=O)N(CCc1cccnc1)c1ccc(CN(C(=O)C(C)(C)C)c2ccc(F)cc2)cn1 [Compound 135] | 1.35 µM |
| CC(C)(C)C(=O)N(Cc1csc(N2CCOCC2)n1)c1ccc(F)cc1 [Compound 136, N-(4-fluorophenyl)-2,2-dimethyl-N-[(2-morpholin-4-yl-1,3-thiazol-4-yl)methyl]propanamide] | 5.6 µM |
| O=C(C1CCCCC1)N(Cc1csc(N2CCOCC2)n1)c1ccc(F)cc1 [Compound 137, N-(4-fluorophenyl)-N-[(2-morpholin-4-yl-1,3-thiazol-4-yl)methyl]cyclohexanecarboxamide] | 11.2 µM |
| CCC(C)(C)C(=O)N(Cc1csc(N2CCOCC2)n1)c1ccc(F)cc1 [Compound 138, N-(4-fluorophenyl)-2,2-dimethyl-N-[(2-morpholin-4-yl-1,3-thiazol-4-yl)methyl]butanamide] | 14.5 µM |
| CCN(c1ccc(CN(C(=O)C(C)(C)C)c2ccc(F)cc2)cn1)C1CC1 [Compound 139, N-({6-[cyclopropyl(ethyl)amino]pyridin-3-yl}methyl)-N-(4-fluorophenyl)-2,2-dimethylpropanamide] | 1.3 µM |
| CC(C)(C)C(=O)N(Cc1csc(N2CCCC2)n1)c1ccc(F)cc1 [Compound 140, N-(4-fluorophenyl)-2,2-dimethyl-N-[(2-pyrrolidin-1-yl-1,3-thiazol-4-yl)methyl]propanamide] | 4.4 µM |
| CN(c1ccc(F)cc1)c1nc(CN(C(=O)C(C)(C)C)c2ccc(F)cc2)cs1 [Compound 141, N-(4-fluorophenyl)-N-({2-[(4-fluorophenyl)(methyl)amino]-1,3-thiazol-4-yl}methyl)-2,2-dimethylpropanamide] | 7.6 µM |
| COc1ccc(N(C)c2nc(CN(C(=O)C(C)(C)C)c3ccc(F)cc3)cs2)cc1 [Compound 142, N-(4-fluroophenyl)-N-({2-[(4-methoxyphenyl)(methyl)amino]-1,3-thiazol-4-yl}methyl)-2,2-dimethylpropanamide] | 6.8 µM |
| CCN(c1nc(CN(C(=O)C(C)(C)C)c2ccc(F)cc2)cs1)C1CC1 [Compound 143, N-({2-[cyclopropyl(ethyl)amino]-1,3-thiazol-4-yl}methyl)-N-(4-fluorophenyl)-2,2-dimethylpropanamide] | 3.8 µM |
| CC(C)(C)C(=O)N(Cc1csc(Br)n1)c1ccc(F)cc1 [Compound 144, N-[(2-bromo-1,3-thiazol-4-yl)methyl]-N-(4-fluorophenyl)-2,2-dimethylpropanamide] | 3.2 µM |
| CC1CN(c2nc(CN(C(=O)C(C)(C)C)c3ccc(F)cc3)cs2)CC(C)N1 (stereo not drawn) [Compound 145, N-{[2-(3,5-dimethylpiperazin-1-yl)-1,3-thiazol-4-yl]methyl}-N-(4-fluorophenyl)-2,2-dimethylpropanamide] | 18.5 µM |
| CC(C)(C)OC(=O)N1CCN(c2nc(CN(C(=O)C(C)(C)C)c3ccc(F)cc3)cs2)CC1 [Compound 146, tert-butyl 4-(4-{[(2,2-dimethylpropanoyl)(4-fluorophenyl)amino]methyl}--1,3-thiazol-2-yl)piperazine-1-carboxylate] | 35.4 µM |
| CC(C)(C)C(=O)N(Cc1csc(N2CCN(c3ccccc3)CC2)n1)c1ccc(F)cc1 [Compound 147, N-(4-fluorophenyl)-2,2-dimethyl-N-{[2-(4-phenylpiperazin-1-yl)-1,3-thiazol-4-yl]methyl}propanamide] | 2.8 µM |

| SMILES | IC50 |
| --- | --- |
| CC(C)N1CCN(c2nc(CN(C(=O)C(C)(C)C)c3ccc(F)cc3)cs2)CC1 [Compound 148, N-(4-fluroophenyl)-N-{[2-(4-isopropylpiperazin-1-yl)-1,3-thiazol-4-yl]methyl}-2,2-dimethylpropanamide] | 15.4 µM |
| CC(C)(C)C(=O)N(Cc1csc(N2CCN(c3ccccn3)CC2)n1)c1ccc(F)cc1 [Compound 149, N-(4-fluorophenyl)-2,2-dimethyl-N-{[2-(4-pyridin-2-ylpiperazin-1-yl)--1,3-thiazol-4-yl]methyl}propanamide] | 8.1 µM |
| CN1CCN(c2nc(CN(C(=O)C(C)(C)C)c3ccc(F)cc3)cs2)CC1 [Compound 150, N-(4-fluorophenyl)-2,2-dimethyl-N-{[2-(4-methylpiperazin-1-yl)-1,3-thiazol-4-yl]methyl}propanamide] | 10.6 µM |
| CC(C)(C)C(=O)N(Cc1csc(N2CCN(c3ncccn3)CC2)n1)c1ccc(F)cc1 [Compound 151, N-(4-fluorophenyl)-2,2-dimethyl-N-{[2-(4-pyrimidin-2-ylpiperazin-1-yl)-1,3-thiazol-4-yl]methyl}propanamide dihydrochloride] | 4 µM |
| CC(C)(C)C(=O)N(Cc1csc(N2CCNCC2)n1)c1ccc(F)cc1 [Compound 152, N-(4-fluorophenyl)-2,2-dimethyl-N-[(2-piperazin-1-yl-1,3-thiazol-4-yl)methyl]propanamide] | 8.3 µM |
| CN(C)CCNc1nc(CN(C(=O)C(C)(C)C)c2ccc(F)cc2)cs1 [Compound 153, N-[(2-{[2-(dimethylamino)ethyl]amino}-1,3-thiazol-4-yl)methyl]-N-(4-fluorophenyl)-2,2-dimethylpropanamide] | 12.9 µM |
| CN(C)CCCNc1nc(CN(C(=O)C(C)(C)C)c2ccc(F)cc2)cs1 [Compound 154] | 9 µM |
| CN(C)CCCCNc1nc(CN(C(=O)C(C)(C)C)c2ccc(F)cc2)cs1 [Compound 155, N-[(2-{[4-(dimethylamino)butyl]amino}-1,3-thiazol-4-yl)methyl]-N-(4-fluorophenyl)-2,2-dimethylpropanamide] | 8.5 µM |
| CC(C)(C)C(=O)N(Cc1csc(NC2CCCC2)n1)c1ccc(F)cc1 [Compound 156, N-{[2-(cyclopentylamino)-1,3-thiazol-4-yl]methyl}-N-(4-fluorophenyl)-2,2-dimethylpropanamide] | 3 µM |
| CC(C)(C)C(=O)N(Cc1csc(NC2CCCCC2)n1)c1ccc(F)cc1 [Compound 157, N-{[2-(cyclohexylamino)-1,3-thiazol-4-yl]methyl}-N-(4-fluorophenyl)-2,2-dimethylpropanamide] | 8.8 µM |
| CC(C)(C)C(=O)N(Cc1csc(Nc2ccc(F)cc2)n1)c1ccc(F)cc1 [Compound 158, N-(4-fluroophenyl)-N-({2-[(4-fluorophenyl)amino]-1,3-thiazol-4-yl}methyl)-2,2-dimethylpropanamide] | 9.4 µM |
| CC(C)(C)C(=O)N(Cc1csc(Nc2ccccc2F)n1)c1ccc(F)cc1 [Compound 159, N-(4-fluorophenyl)-N-({2-[(2-fluorophenyl)amino]-1,3-thiazol-4-yl}methyl)-2,2-dimethylpropanamide] | 10.2 µM |
| CNc1nc(CN(C(=O)C(C)(C)C)c2ccc(F)cc2)cs1 [Compound 160, N-(4-fluorophenyl)-2,2-dimethyl-N-{[2-(methylamino)-1,3-thiazol-4-yl]methyl}propanamide] | 6.1 µM |
| CC(C)CNc1nc(CN(C(=O)C(C)(C)C)c2ccc(F)cc2)cs1 [Compound 161, N-(4-fluorophenyl)-N-{[2-(isobutylamino)-1,3-thiazol-4-yl]methyl}-2,2-dimethylpropanamide] | 2.7 µM |
| CC(C)(C)C(=O)N(Cc1csc(N2C[C@@H]3C[C@H]2CN3)n1)c1ccc(F)cc1 [Compound 162, N-({2-[(1S,4S)-2,5-diazabicycl[2.2.1]hept-2-yl]-1,3-thiazol-4-yl}methyl)-N-(4-fluorophenyl)-2,2-dimethylpropanamide] | 11 µM |
| CCCNc1nc(CN(C(=O)C(C)(C)C)c2ccc(F)cc2)cs1 [Compound 163, N-(4-fluorophenyl)-2,2-dimethyl-N-{[2-(propylamino)-1,3-thiazol-4-yl]methyl}propanamide] | 7.7 µM |
| CN(C)c1nc(CN(C(=O)C(C)(C)C)c2ccc(F)cc2)cs1 [Compound 164, N-{[2-(dimethylamino)-1,3-thiazol-4-yl]methyl}-N-(4-fluorophenyl)-2,2-dimethylpropanamide] | 4.75 µM |
| CC(C)(C)C(=O)N(Cc1csc(N2CCN(CCc3ccccc3)CC2)n1)c1ccc(F)cc1 [Compound 165, N-(4-fluroophenyl)-2,2-dimethyl-N-({2-[4-(2-phenylethyl)piperazin-1-yl]--1,3-thiazol-4-yl}methyl)propanamide] | 3.6 µM |
